Experiments:
Assay in all cases: Bliss excess, mean over the matrix (fraction); higher = more synergy
[1] = system: CHL-1 (Melanoma)
Summary of the method: (§1)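 Cell lines grown in DMEM/F12 or RPMI with 10% FBS were plated in 1536-well plates and held 24 hours at 37°C, 5% CO2 before 72 hours of exposure to two-drug dose matrices, with DMSO typically at 0.2%. CellTiter-Glo 2.0 luminescence gave viability, which was converted to inhibition. Vehicle wells were set to 0 and blank wells to 1. Combination Emax is the second-highest inhibition in the matrix, and Bliss excess is the observed combination effect minus the expected EA + EB − EA·EB, where EA and EB are the single-agent effects.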

[2] = system: NCI-H1755 (Lung Adenocarcinoma)
Summary of the method: as §1

[3] = system: HCC-44 (Lung Adenocarcinoma)
Summary of the method: as §1

[4] = system: FLO-1 (Esophageal Adenocarcinoma)
Summary of the method: as §1

[5] = system: SW684 (Other Solid Carcinomas)
Summary of the method: as §1

[6] = system: KYSE-70 (Esophageal Squamous Cell Carcinoma)
Summary of the method: as §1

CS(=O)(=O)CCNCc1ccc(-c2ccc3ncnc(Nc4ccc(OCc5cccc(F)c5)c(Cl)c4)c3c2)o1 [Lapatinib] + NC1(c2ccc(-c3nc4ccn5c(=O)[nH]nc5c4cc3-c3ccccc3)cc2)CCC1 [MK-2206] (first compound max 10 µM, 7x7, partner max 10 µM)
Bliss excess [1]: 0.0221
Bliss excess [2]: -0.0085
Bliss excess [3]: 0.005
Bliss excess [4]: -0.0401
Bliss excess [5]: 0.0223
Bliss excess [6]: 0.0087
